How the values were obtained:
Test in all cases: relative viability (nuclei count vs DMSO), 5 days (fraction); higher = more cells survive
IPA-3 + Palbociclib = compound: C1=CC=C2C(=C1)C=CC(=C2SSC3=C(C=CC4=CC=CC=C43)O)O [IPA-3] + CC(=O)c1c(C)c2cnc(Nc3ccc(N4CCNCC4)cn3)nc2n(C2CCCC2)c1=O [Palbociclib] (partner 0.5 µM)
In short: (§1)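 After 5 days of treatment, lung cancer cells in 1536-well plates were fixed and stained in a single step (final 0.05% Triton X-100, 1% formaldehyde, 1 ug/ml Hoechst) and their nuclei counted on 4× images. Treatment had been applied by pin tool the day after seeding as one drug alone or as a fixed anchor-drug dose with five library-drug doses (not always all listed) in √10 steps. Relative viability is the nuclei count of treated wells divided by that of vehicle wells, and values are medians of duplicate plates.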

IPA-3 + Phenformin = compound: C1=CC=C2C(=C1)C=CC(=C2SSC3=C(C=CC4=CC=CC=C43)O)O [IPA-3] + N=C(N)NC(=N)NCCc1ccccc1 [Phenformin] (partner 250 µM)
In short: as §1

RAF265 + Bortezomib = compound: Cn1c(Nc2ccc(C(F)(F)F)cc2)nc2cc(Oc3ccnc(-c4ncc(C(F)(F)F)[nH]4)c3)ccc21 [RAF265] + CC(C)C[C@H](NC(=O)[C@H](Cc1ccccc1)NC(=O)c1cnccn1)B(O)O [Bortezomib] (partner 0.002 µM)
In short: as §1

Doramapimod + Crizotinib = compound: Cc1ccc(-n2nc(C(C)(C)C)cc2NC(=O)Nc2ccc(OCCN3CCOCC3)c3ccccc23)cc1 [Doramapimod] + C[C@@H](Oc1cc(-c2cnn(C3CCNCC3)c2)cnc1N)c1c(Cl)ccc(F)c1Cl [Crizotinib] (partner 1 µM)
In short: as §1

| Cell Line | relative viability (IPA-3 + Palbociclib; first compound 0.2 µM) | relative viability (IPA-3 + Palbociclib; first compound 0.6325 µM) | relative viability (IPA-3 + Palbociclib; first compound 2 µM) | relative viability (IPA-3 + Palbociclib; first compound 6.325 µM) | relative viability (IPA-3 + Palbociclib; first compound 20 µM) | relative viability (IPA-3 + Phenformin; first compound 0.2 µM) | relative viability (IPA-3 + Phenformin; first compound 0.6325 µM) | relative viability (IPA-3 + Phenformin; first compound 2 µM) | relative viability (IPA-3 + Phenformin; first compound 6.325 µM) | relative viability (IPA-3 + Phenformin; first compound 20 µM) | relative viability (RAF265 + Bortezomib; first compound 0.01 µM) | relative viability (RAF265 + Bortezomib; first compound 0.03162 µM) | relative viability (RAF265 + Bortezomib; first compound 0.1 µM) | relative viability (RAF265 + Bortezomib; first compound 0.3162 µM) | relative viability (RAF265 + Bortezomib; first compound 1 µM) | relative viability (Doramapimod + Crizotinib; first compound 0.02 µM) | relative viability (Doramapimod + Crizotinib; first compound 0.06325 µM) | relative viability (Doramapimod + Crizotinib; first compound 0.2 µM) | relative viability (Doramapimod + Crizotinib; first compound 0.6325 µM) | relative viability (Doramapimod + Crizotinib; first compound 2 µM) |
| --- | --- | --- | --- | --- | --- | --- | --- | --- | --- | --- | --- | --- | --- | --- | --- | --- | --- | --- | --- | --- |
| LXF-289 | 0.606 | 0.579 | 0.556 | 0.568 | 0.642 | 0.536 | 0.47 | 0.544 | 0.514 | 0.546 | 0.996 | 0.988 | 0.969 | 0.763 | 0.796 | 0.839 | 0.91 | 0.799 | 0.793 | 0.757 |
| PC-3 [JPC-3] | 0.537 | 0.541 | 0.538 | 0.531 | 0.477 | 0.462 | 0.47 | 0.495 | 0.499 | 0.489 | 0.751 | 0.815 | 0.834 | 0.393 | 0.731 | 1 | 1 | 1.06 | 1.08 | 0.955 |
| CAL-12T | 0.718 | 0.342 | 0.404 | 0.28 | 0.421 | 0.763 | 0.512 | 0.529 | 0.529 | 0.694 | 1.06 | 0.834 | 0.836 | 0.476 | 0.64 | 0.687 | 0.726 | 0.746 | 0.635 | 0.727 |
| COR-L 105 | 0.409 | 0.275 | 0.405 | 0.393 | 0.399 | 0.634 | 0.445 | 0.49 | 0.418 | 0.55 | 0.902 | 0.771 | 0.647 | 0.442 | 0.56 | 0.849 | 0.915 | 0.798 | 0.897 | 0.75 |
| NCI-H2347 | 0.409 | 0.45 | 0.429 | 0.414 | 0.448 | 0.334 | 0.448 | 0.33 | 0.406 | 0.736 | 0.801 | 1.03 | 1.09 | 0.809 | 0.573 | 0.789 | 0.568 | 0.745 | 0.762 | 0.644 |
| NCI-H2126 | 0.33 | 0.369 | 0.335 | 0.343 | 0.375 | 0.57 | 0.517 | 0.506 | 0.516 | 0.629 | 1.05 | 1.1 | 1.13 | 1.14 | 0.926 | 0.966 | 1.06 | 1.06 | 1.11 | 1.05 |
| NCI-H838 | 0.278 | 0.202 | 0.209 | 0.225 | 0.204 | 0.857 | 0.576 | 0.524 | 0.517 | 0.666 | 0.784 | 0.899 | 0.788 | 0.841 | 0.572 | 0.847 | 0.807 | 0.872 | 1.01 | 0.799 |
| A549 | – | – | – | – | – | 0.197 | – | 0.142 | 0.189 | 0.298 | – | – | – | – | – | 0.763 | 0.747 | 0.771 | 0.743 | 0.762 |
| NCI-H1648 | 0.222 | 0.223 | 0.248 | 0.263 | 0.229 | – | – | – | – | – | – | – | – | – | – | – | – | – | – | – |
| NCI-H1623 | – | – | – | – | – | 0.605 | 0.583 | 0.618 | 0.563 | 0.655 | – | – | – | – | – | – | – | – | – | – |
